Measurements published in US11702429B2, “mTORC modulators and uses thereof” (Aeovian Pharmaceuticals, Inc., priority 2019, dated 2023).
Read-outs that look alike come from different tables or passages of the source.

Legend:
[1] = target: T1, mTORC2 (Homo sapiens, UniProt P42345+P62942); assay: Inhibition assay for mTORC2: phosphorylation of pAkt at Ser473, AlphaLISA in PC3 cells; assay type: cell-based; details: for IC50: read-out: pIC50 mTORC2 (converted)
T1 construct: endogenous in cells; host or cells: PC3 cells (human prostate adenocarcinoma)

[2] = target: T2, mTORC1 (Homo sapiens, UniProt P42345+P62942); assay: Inhibition assay for mTORC1: phosphorylation of pS6K at Thr389, AlphaLISA in PC3 cells; assay type: cell-based; details: for IC50: read-out: pIC50 mTORC1 (converted)
T2 construct: endogenous in cells; host or cells: PC3 cells (human prostate adenocarcinoma)

[3] = PC3 cells, treated 24 hours, pAkt Ser473, AlphaLISA, C16 diastereomer mixtures not separated
[4] = PC3 cells, treated 24 hours, pS6K Thr389, AlphaLISA, C16 diastereomer mixtures not separated

T1 sequence (P62942 2-108 limits assumed, other chains not shown): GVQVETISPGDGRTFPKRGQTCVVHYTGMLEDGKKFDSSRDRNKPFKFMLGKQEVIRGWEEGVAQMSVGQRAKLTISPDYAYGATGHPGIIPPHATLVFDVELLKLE

SMILES | IC50 [1] | IC50 [2] | also measured
COC1C[C@@H]2CC[C@@H](C)[C@@](O)(O2)C(=O)C(=O)N2CCCCC2C(=O)O[C@H]([C@H](C)C[C@@H]2CC[C@@H](OCCCOCCO)[C@H](OC)C2)CC(=O)[C@H](C)/C=C(\C)[C@@H](O)[C@@H](OC)C(=O)[C@H](C)C[C@H](C)/C=C/C=C/C=C/1C (stereo partly shown) [Compound 352] | – | – | pIC50 mTORC2 ([1]; Rapamycin analogs substituted at C40, pAkt Ser473, PC3 cells, 24 hours treatment): C (greater than 6 as C); pIC50 mTORC1 ([2]; Rapamycin analogs substituted at C40, pS6K Thr389, PC3 cells, 24 hours treatment): A (pIC50 for mTORC1 of >9.5 as A)
COC1C[C@@H]2CC[C@@H](C)[C@@](O)(O2)C(=O)C(=O)N2CCCCC2C(=O)O[C@H]([C@H](C)C[C@@H]2CC[C@@H](OCCCN3CCCCC3)[C@H](OC)C2)CC(=O)[C@H](C)/C=C(\C)[C@@H](O)[C@@H](OC)C(=O)[C@H](C)C[C@H](C)/C=C/C=C/C=C/1C (stereo partly shown) [Compound 341] | < 1 µM | < 0.000316 µM | –
CO[C@H](COC1C[C@@H]2CC[C@@H](C)[C@@](O)(O2)C(=O)C(=O)N2CCCCC2C(=O)O[C@H]([C@H](C)C[C@@H]2CC[C@@H](O)[C@H](OC)C2)CC(=O)[C@H](C)/C=C(\C)[C@@H](O)[C@@H](OC)C(=O)[C@H](C)C[C@H](C)/C=C/C=C/C=C/1C)c1ccccc1 (stereo partly shown) [Compound 206] | 1 to 10 µM | 0.000316 to 0.00316 µM | –
COC1C[C@@H]2CC[C@@H](C)[C@@](O)(O2)C(=O)C(=O)N2CCCCC2C(=O)O[C@H]([C@H](C)C[C@@H]2CC[C@@H](OC(=O)N(C)CCCO)[C@H](OC)C2)CC(=O)[C@H](C)/C=C(\C)[C@@H](O)[C@@H](OC)C(=O)[C@H](C)C[C@H](C)/C=C/C=C/C=C/1C (stereo partly shown) [Compound 338] | < 1 µM | < 0.000316 µM | –
COC1C[C@@H]2CC[C@@H](C)[C@@](O)(O2)C(=O)C(=O)N2CCCCC2C(=O)O[C@H]([C@H](C)C[C@@H]2CC[C@@H](OC(=O)NCCN3CCN(C)CC3)[C@H](OC)C2)CC(=O)[C@H](C)/C=C(\C)[C@@H](O)[C@@H](OC)C(=O)[C@H](C)C[C@H](C)/C=C/C=C/C=C/1C (stereo partly shown) [Compound 367] | < 1 µM | < 0.000316 µM | –
COC1C[C@@H]2CC[C@@H](C)[C@@](O)(O2)C(=O)C(=O)N2CCCCC2C(=O)O[C@H]([C@H](C)C[C@@H]2CC[C@@H](OCCCN3CCN(C)CC3)[C@H](OC)C2)CC(=O)[C@H](C)/C=C(\C)[C@@H](O)[C@@H](OC)C(=O)[C@H](C)C[C@H](C)/C=C/C=C/C=C/1C (stereo partly shown) [Compound 332] | < 1 µM | < 0.000316 µM | –
COC1C[C@@H]2CC[C@@H](C)[C@@](O)(O2)C(=O)C(=O)N2CCCCC2C(=O)O[C@H]([C@H](C)C[C@@H]2CC[C@@H](OC(=O)NCCc3ccccc3)[C@H](OC)C2)CC(=O)[C@H](C)/C=C(\C)[C@@H](O)[C@@H](OC)C(=O)[C@H](C)C[C@H](C)/C=C/C=C/C=C/1C (stereo partly shown) [Compound 324] | < 1 µM | < 0.000316 µM | –
COCCOC1C[C@@H]2CC[C@@H](C)[C@@](O)(O2)C(=O)C(=O)N2CCCC[C@H]2C(=O)O[C@H]([C@H](C)C[C@@H]2CC[C@@H](OCCN3CC4(COC4)C3)[C@H](OC)C2)CC(=O)[C@H](C)/C=C(\C)[C@@H](O)[C@@H](OC)C(=O)[C@H](C)C[C@H](C)/C=C/C=C/C=C/1C (mixture of isomers) [Compound 44] | – | – | IC50 [1, 3]: 1 to 10 µM; IC50 [2, 4]: < 0.000316 µM
COC1C[C@@H]2CC[C@@H](C)[C@@](O)(O2)C(=O)C(=O)N2CCCCC2C(=O)O[C@H]([C@H](C)C[C@@H]2CC[C@@H](OCCOCCOCCO)[C@H](OC)C2)CC(=O)[C@H](C)/C=C(\C)[C@@H](O)[C@@H](OC)C(=O)[C@H](C)C[C@H](C)/C=C/C=C/C=C/1C (stereo partly shown) [Compound 317] | < 1 µM | < 0.000316 µM | –
COC1CC(CC(C)C2CC(=O)C(C)C=C(C)C(O)C(OC)C(=O)C(C)CC(C)C=CC=CC=C(C)C(OCCO)CC3CCC(C)C(O)(O3)C(=O)C(=O)N3CCCCC3C(=O)O2)CCC1OCCCN1CCOCC1C (mixture of isomers) [Compound 5] | – | – | IC50 [1, 3]: > 10 µM; IC50 [2, 4]: < 0.000316 µM
COCCOC1CC2CCC(C)C(O)(O2)C(=O)C(=O)N2CCCCC2C(=O)OC(C(C)CC2CCC(OCCCN3CCOCC3C)C(OC)C2)CC(=O)C(C)C=C(C)C(O)C(OC)C(=O)C(C)CC(C)C=CC=CC=C1C (mixture of isomers) [Compound 42] | – | – | IC50 [1, 3]: 1 to 10 µM; IC50 [2, 4]: < 0.000316 µM
